Measurements taken from PMC9709406 (Frontiers in Pharmacology, 2022).
Like-named read-outs stand apart in the source and are kept apart here.

Assays:
KYSE450 cells [1] = assay: Cell cycle analysis by flow cytometry, KYSE450; assay type: cell-based, human; conditions: KYSE450, 24 h; icotinib at 2 μM, 3l at 8 μM
Protocol: (§1) KYSE450/KYSE450TR cells were plated in 6-well plates with a density of 1×10^5 cells/well and cultured overnight. […] Trypsinization treatment and the cells were collected by centrifugation. The cell pellet was re-suspended in 70% ethanol at −20°C for at least 3 h. The cells were washed with PBS and were re-suspended in 250 μL of 0.6% tricine with Renease A for 1 h, then stained in PI (final concentration 1.8 μg/ml, Biolegend cat: 640945) for 15 min in dark. Cells were retransferred to the BD FACSCalibur™ Flow Cytometer. All analyses were performed with FlowJo software v105.3.6.

KYSE450 cells [2] = assay: MTT assay, KYSE450; assay type: cell-based, human; conditions: for IC50: Homo sapiens, KYSE-450
Method in brief: (§2)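 MTT read-out at 490 nm after 48 h treatment with 0–50 μM compound, applied one day after seeding 2,200–2,500 cells/well; five wells per concentration, 0.1% DMSO as control. Culture in RPMI-1640/10% FBS, with 100 nm/L paclitaxel kept in the taxol-resistant lines.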

KYSE70TR cells = assay: MTT assay, taxol-resistant KYSE70TR; assay type: cell-based, human; conditions: for blank-corrected absorbance 490 nm relative to control (fraction) / inhibition (1 minus fraction of control): 70TR
From the text: (§3) The human cancer cells (H1650, H1975, KYSE70, KYSE410 and KYSE450) were purchased from the Type Culture Collection of the Chinese Academy of Sciences (Shanghai, China). The human immortalized normal esophageal epithelial cell line SHEE was donated by Dr. Enmin Li from the Laboratory of Tumor Pathology (Shantou University Medical College, Shantou, Guangdong, China). Drug-resistant cells (H1650TR, H1975OR, KYSE70TR, KYSE410TR and KYSE450TR) were induced by China-US (Henan) Hormel Cancer Institute. The cellswere cultured in RPMI-1640 complete growth medium containing 100 U/mL penicillin-streptomycin and 10% FBS. Based on the above medium formula, 100 nm/L paclitaxel was added in taxol-resistant cells, 100 nm/L gefitinib was added in gefitinib-resistant cells. The cells were incubated at 37 °C in an atmosphere containing 5% of CO2. The compounds were dissolved in DMSO to make a 50 mM stock solution and were diluted to the concentration of working solutions with complete growth medium before administration.
(§4) Cells were seeded in 96-well plates with 2,200–2,500 cells/well in100 μL. One day after seeding, test compounds with the concentration between 0 and 50 μM were added with 0.1% DMSO as control. Five multiple wells for each concentration. […] The absorbance at 490 nm was measured using a microplate reader (Thermo).

KYSE410 cells = assay: MTT assay, KYSE410; assay type: cell-based, human; conditions: for IC50: Homo sapiens, KYSE-410
Method in brief: as §2

KYSE410TR cells = assay: MTT assay, taxol-resistant KYSE410TR; assay type: cell-based, human; conditions: for blank-corrected absorbance 490 nm relative to control (fraction) / inhibition (1 minus fraction of control): 410TR
From the text: as §3, §4

[3] = tested on: EGFR-TK pathway in KYSE450TR cells; assay: Western blot of EGFR-TK pathway proteins, KYSE450TR; assay type: cell-based, human; conditions: 3 μM, vs control
Protocol: Cells treated with 1% DMSO were used as control. Then the cells were harvested and total proteins were extracted. Total proteins were separated by 12% SDS polyacrylamide gel electrophoresis and transferred onto PVDF membranes. The membrane was blocked for 1 h, then incubated overnight with a 1 : 1000 dilution of anti-EGFR, anti-p-EGFR (Tyr1068/Tyr1086), anti-Erk1/2, and anti-p-Erk1/2 (Thr202/Tyr204), or 1 : 3000 dilution of anti-GAPDH primary antibody at 4°C. 1 : 3000 anti-rabbit secondary antibodies incubated for 2 h at room temperature. Protein bands were developed by chemiluminescence.

H1975 cells = assay: MTT assay for cell proliferation and cytotoxicity, H1975; assay type: cell-based, human; conditions: Homo sapiens, NCI-H1975, 48 h, MTT, 48 h, H1975, n = 5; read-out: IC50 48 h H1975
Method in brief: as §2

KYSE450 cells [4] = assay: Annexin V/PI flow cytometry for apoptosis, KYSE450; assay type: cell-based, human; conditions: 48 h
Protocol: Cell-apoptosis analysis was carried out by flow cytometry using the Annexin V/PI apoptosis methods. […] Cells were harvested and incubated with 250 μL of 1 × Annexin V binding buffer containing 5 μL PI and 5 μL FITC Annexin V (final concentration 1.8 μg/ml, Biolegend (cat: 640945) for 15 min at room temperature in dark. 200 µL of 1 × binding buffer was added for flow cytometry analysis (BD FACSCalibur™ Flow Cytometer).

H1975OR cells = assay: MTT assay, osimertinib-resistant H1975OR; assay type: cell-based; conditions: Homo sapiens, NCI-H1975, 48 h, osimertinib-resistant H1975OR, value in parentheses in H1975 column, read-out: IC50 48 h H1975OR (data in parentheses) (converted)
From the text: as §3, §4

SHEE cells = assay: MTT assay, normal esophageal epithelial cell line SHEE; assay type: cell-based; conditions: Homo sapiens, 48 h, n = 5
Method in brief: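 Cells seeded at 2,200–2,500/well in RPMI-1640 with 10% FBS; taxol-resistant lines maintained in 100 nm/L paclitaxel. Compounds at 0–50 μM added next day (0.1% DMSO control), five replicate wells, 48 h exposure. Viability by MTT, absorbance 490 nm.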

KYSE450TR cells [5] = assay: Cell cycle analysis by flow cytometry, KYSE450TR; assay type: cell-based, human; conditions: 24 h, icotinib at 8 μM, 3l at 8 μM
Protocol: as §1

KYSE450TR cells [6] = assay: MTT assay, taxol-resistant KYSE450TR; assay type: cell-based, human; conditions: for blank-corrected absorbance 490 nm relative to control (fraction) / inhibition (1 minus fraction of control): 450TR; for IC50: Homo sapiens, MTT
From the text: as §3, §4

**Q.** For FC(F)(F)c1ccc(-n2cc(-c3cccc(Nc4ncnc5cc6c(cc45)OCCOCCOCCO6)c3)nn2)cc1 [compound 3l], which “cell cycle phase in which cells were arrested” value (KYSE450 cells [1]) is on record?
**A.** G2/M phase

**Q.** And the IC50 (KYSE450 cells [2]; KYSE450, MTT, 490 nm, read-out: IC50)?
**A.** 4 µM

**Q.** And the IC50 (KYSE450 cells [2]; MTT, 48 h, KYSE450, n = 5, read-out: IC50 48 h KYSE450)?
**A.** 3.4 ± 0.16 µM

**Q.** And the “blank-corrected absorbance 490 nm relative to control (fraction)” value (KYSE450 cells [2]; KYSE450, concentration 2)?
**A.** 0.4268

**Q.** And the “inhibition (1 minus fraction of control)” value (KYSE450 cells [2]; KYSE450, concentration 2)?
**A.** 0.5732

**Q.** And the “blank-corrected absorbance 490 nm relative to control (fraction)” value (KYSE450 cells [2]; KYSE450, concentration 4)?
**A.** 0.4691

**Q.** And the “inhibition (1 minus fraction of control)” value (KYSE450 cells [2]; KYSE450, concentration 4)?
**A.** 0.5309

**Q.** And the “blank-corrected absorbance 490 nm relative to control (fraction)” value (KYSE450 cells [2]; KYSE450, concentration 8)?
**A.** 0.05646

**Q.** And the “inhibition (1 minus fraction of control)” value (KYSE450 cells [2]; KYSE450, concentration 8)?
**A.** 0.9435

**Q.** And the “blank-corrected absorbance 490 nm relative to control (fraction)” value (KYSE70TR cells; concentration 3)?
**A.** 0.722

**Q.** What about the “inhibition (1 minus fraction of control)” value (KYSE70TR cells; concentration 3) of the same molecule?
**A.** 0.278

**Q.** What about the “blank-corrected absorbance 490 nm relative to control (fraction)” value (KYSE70TR cells; concentration 6) of the same molecule?
**A.** 0.41

**Q.** What about the “inhibition (1 minus fraction of control)” value (KYSE70TR cells; concentration 6) of the same molecule?
**A.** 0.59

**Q.** And the “blank-corrected absorbance 490 nm relative to control (fraction)” value (KYSE70TR cells; concentration 12)?
**A.** 0.2379

**Q.** And the “inhibition (1 minus fraction of control)” value (KYSE70TR cells; concentration 12)?
**A.** 0.7621

**Q.** And the IC50 (KYSE70TR cells; Homo sapiens, MTT, 48 h, taxol-resistant KYSE70TR, value in parentheses, read-out: IC50 48 h KYSE70TR (data in parentheses) (converted))?
**A.** 5.13 µM

**Q.** What about the IC50 (KYSE410 cells; KYSE410, MTT, 490 nm, read-out: IC50) of the same molecule?
**A.** 7 µM

**Q.** And the IC50 (KYSE410 cells; MTT, 48 h, KYSE410, n = 5, read-out: IC50 48 h KYSE410)?
**A.** 5.94 ± 0.41 µM

**Q.** And the “blank-corrected absorbance 490 nm relative to control (fraction)” value (KYSE410 cells; KYSE410, concentration 3.5)?
**A.** 0.6286

**Q.** What about the “inhibition (1 minus fraction of control)” value (KYSE410 cells; KYSE410, concentration 3.5) of the same molecule?
**A.** 0.3714

**Q.** What about the “blank-corrected absorbance 490 nm relative to control (fraction)” value (KYSE410 cells; KYSE410, concentration 7) of the same molecule?
**A.** 0.487

**Q.** What about the “inhibition (1 minus fraction of control)” value (KYSE410 cells; KYSE410, concentration 7) of the same molecule?
**A.** 0.513

**Q.** And the “blank-corrected absorbance 490 nm relative to control (fraction)” value (KYSE410 cells; KYSE410, concentration 14)?
**A.** 0.3214

**Q.** And the “inhibition (1 minus fraction of control)” value (KYSE410 cells; KYSE410, concentration 14)?
**A.** 0.6786

**Q.** And the “blank-corrected absorbance 490 nm relative to control (fraction)” value (KYSE410TR cells; concentration 4)?
**A.** 0.5568

**Q.** And the “inhibition (1 minus fraction of control)” value (KYSE410TR cells; concentration 4)?
**A.** 0.4432

**Q.** And the “blank-corrected absorbance 490 nm relative to control (fraction)” value (KYSE410TR cells; concentration 8)?
**A.** 0.3771

**Q.** What about the “inhibition (1 minus fraction of control)” value (KYSE410TR cells; concentration 8) of the same molecule?
**A.** 0.6229

**Q.** What about the “blank-corrected absorbance 490 nm relative to control (fraction)” value (KYSE410TR cells; concentration 16) of the same molecule?
**A.** 0.2345

**Q.** What about the “inhibition (1 minus fraction of control)” value (KYSE410TR cells; concentration 16) of the same molecule?
**A.** 0.7655

**Q.** And the IC50 (KYSE410TR cells; Homo sapiens, MTT, 48 h, taxol-resistant KYSE410TR, value in parentheses, read-out: IC50 48 h KYSE410TR (data in parentheses) (converted))?
**A.** 5.3 µM

**Q.** And the “P-EGFR (Tyr1068) protein levels” value [3]?
**A.** lower than the control at 1 and 2 h

**Q.** And the “P-ERK1/2 (Thr202/Tyr204) protein levels” value [3]?
**A.** lower than the control at 6 h

**Q.** And the IC50 (H1975 cells)?
**A.** 3.26 ± 0.26 µM

**Q.** What about the “proportion of apoptotic cells” value (KYSE450 cells [4]; KYSE450, 2 μM) of the same molecule?
**A.** 24.32%

**Q.** What about the “proportion of apoptotic cells” value (KYSE450 cells [4]; KYSE450, 4 μM) of the same molecule?
**A.** 39.89%

**Q.** And the IC50 (H1975OR cells)?
**A.** 9.73 µM

**Q.** What about the IC50 (SHEE cells) of the same molecule?
**A.** 4.82 ± 0.23 µM

**Q.** And the “cell cycle phase in which cells were arrested” value (KYSE450TR cells [5])?
**A.** G2/M phase

**Q.** What about the “blank-corrected absorbance 490 nm relative to control (fraction)” value (KYSE450TR cells [6]; concentration 4) of the same molecule?
**A.** 0.04737

**Q.** And the “inhibition (1 minus fraction of control)” value (KYSE450TR cells [6]; concentration 4)?
**A.** 0.9526

**Q.** What about the “blank-corrected absorbance 490 nm relative to control (fraction)” value (KYSE450TR cells [6]; concentration 8) of the same molecule?
**A.** 0.04791

**Q.** What about the “inhibition (1 minus fraction of control)” value (KYSE450TR cells [6]; concentration 8) of the same molecule?
**A.** 0.9521

**Q.** And the “blank-corrected absorbance 490 nm relative to control (fraction)” value (KYSE450TR cells [6]; concentration 16)?
**A.** 0.1075

**Q.** What about the “inhibition (1 minus fraction of control)” value (KYSE450TR cells [6]; concentration 16) of the same molecule?
**A.** 0.8925

**Q.** And the IC50 (KYSE450TR cells [6]; 450t (KYSE450TR), 490 nm, read-out: IC50)?
**A.** 2.1 µM

**Q.** And the IC50 (KYSE450TR cells [6]; 48 h, taxol-resistant KYSE450TR, value in parentheses, read-out: IC50 48 h KYSE450TR (data in parentheses) (converted))?
**A.** 8.59 µM
